Experimental data from patent publication EP4778929A1, “NOVEL TYPE I TOPOISOMERASE INHIBITOR, AND PREPARATION METHOD THEREFOR AND USE THEREOF” (priority 2023, dated 2025).
Like-named read-outs stand apart in the source and are kept apart here.

Legend:
topoisomerase I (Topo I) = molecular target: T1, topoisomerase I (Topo I) (Homo sapiens, UniProt P11387); assay: Topo I enzyme-inhibitory activity by agarose-gel electrophoresis (plasmid relaxation); assay type: biochemical
T1 sequence (P11387 1-765): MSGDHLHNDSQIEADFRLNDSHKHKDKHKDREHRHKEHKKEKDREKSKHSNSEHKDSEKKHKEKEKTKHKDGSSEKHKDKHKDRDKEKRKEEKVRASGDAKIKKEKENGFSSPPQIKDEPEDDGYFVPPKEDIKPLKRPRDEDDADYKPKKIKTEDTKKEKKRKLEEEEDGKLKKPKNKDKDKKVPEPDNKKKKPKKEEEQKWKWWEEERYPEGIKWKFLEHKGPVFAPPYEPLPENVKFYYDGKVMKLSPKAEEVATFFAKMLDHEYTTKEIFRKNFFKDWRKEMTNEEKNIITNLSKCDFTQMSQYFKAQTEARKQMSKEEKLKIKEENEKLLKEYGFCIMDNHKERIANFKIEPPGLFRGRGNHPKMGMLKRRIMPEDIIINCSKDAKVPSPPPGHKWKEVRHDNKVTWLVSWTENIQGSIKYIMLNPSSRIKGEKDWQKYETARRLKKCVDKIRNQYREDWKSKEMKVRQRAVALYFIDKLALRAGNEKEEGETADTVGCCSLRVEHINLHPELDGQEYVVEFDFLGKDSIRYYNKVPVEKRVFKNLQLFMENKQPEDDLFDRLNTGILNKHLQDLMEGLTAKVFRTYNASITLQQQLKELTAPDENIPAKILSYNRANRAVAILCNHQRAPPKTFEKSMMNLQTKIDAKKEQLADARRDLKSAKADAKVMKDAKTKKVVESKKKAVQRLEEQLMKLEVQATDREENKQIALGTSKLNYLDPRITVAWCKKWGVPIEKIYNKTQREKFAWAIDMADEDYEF
Description: Test Example 1. Determination of Topo I Enzyme-Inhibitory Activity by Agarose-Gel Electrophoresis
Principle: Type-I topoisomerase (Topo I) relaxes positive and negative supercoils by introducing transient single-strand breaks and forming reversible cleavage complexes (Topo I-DNA covalent complexes). Gel electrophoresis can resolve DNA species of identical molecular weight but different topology: supercoiled plasmid migrates fastest, whereas the nicked, relaxed form moves more slowly. Quantifying the decrease in supercoiled DNA therefore provides a direct measure of Topo I activity.
Experimental Procedure: A 1× reaction buffer was prepared (20 mM Tris-HCl pH 7.5, 200 mM NaCl, 0.25 mM EDTA, 5 % (v/v) glycerol, 0.5 µg pNO1 plasmid substrate). Test compounds (5 % DMSO final) were added to the buffer, followed by Topo I enzyme (0.75 U per reaction). After gentle mixing, reactions were incubated at 37 °C for 30 min. Positive (enzyme + vehicle) and negative (no enzyme) controls were included in parallel. Reactions were terminated by adding STEB buffer and chloroform/iso-amyl alcohol (24:1, v/v), vortexed and centrifuged for 2 min. The aqueous (upper) phase was loaded onto a 1 % (w/v) agarose gel, electrophoresed for 1-2 h, stained with GelRed, and imaged under UV trans-illumination.
Data Analysis: Band intensities of supercoiled DNA were quantified with image-analysis software. Relaxation activity (%) was calculated as (Max-Sample)/ (Max-Min)*100%, where Max = intensity of the no-enzyme negative control, Min = intensity of the vehicle-only positive control, and Sample = intensity of the compound-treated lane. Dose-response data (compound concentration, X; relaxation activity %, Y) were fitted in Excel or GraphPad Prism 5.0 using the four-parameter logistic equation: Y=Bottom + (Top-Bottom)/(1+(IC50/X)[…]) to derive the IC50 value for each compound.
Table 1. Compound-mediated inhibition of topoisomerase I (Topo I) enzymatic activity

HCT116 cells = assay: Inhibition of cell proliferation by CTG (CellTiter-Glo) luminescence assay; assay type: cell-based; settings: Homo sapiens, read-out: HCT116, IC50
Description: Test Example 2. Determination of Compound-Mediated Inhibition of Cell Proliferation by CTG (CellTiter-Glo) Luminescence Assay
Principle: The Promega CellTiter-Glo™ luciferase reagent was used. Luciferase consumes ATP to generate light; metabolically active cells continuously produce ATP through respiration and other processes. After adding an equal volume of CellTiter-Glo™ reagent to the culture medium, the resulting luminescence is directly proportional to the ATP content, which in turn correlates with the number of viable cells. Thus, the assay quantifies compound-induced suppression of cell proliferation.
Experimental Procedure: HCT116 cells (ATCC) were revived in complete medium (McCoy's 5a + 10 % FBS). After two passages, exponentially growing cells were harvested, counted, and resuspended to the appropriate density. A 100 µL aliquot of cell suspension (2 000 cells per well) was seeded into 96-well plates and incubated overnight (37 °C, 5 % CO2, 100 % relative humidity). Test compounds were dissolved in DMSO to prepare 10 mM stock solutions and serially diluted 1:3 in DMSO to generate nine concentration steps. Each DMSO solution was further diluted 200-fold into medium; 25 µL of the resulting solutions were added to the cell plates (final DMSO concentration […]). After 72 h incubation (37 °C, 5 % CO2), 50 µL of CellTiter-Glo reagent was added per well. Plates were shaken gently, incubated for 30 min at room temperature in the dark, and luminescence was read on an EnVision multimode reader. Percent inhibition was calculated as: Inhibition % = (1−As/Ac) × 100, [formula] where As = signal from compound-treated wells and Ac = signal from DMSO-only control wells. Concentration-response data were fitted in Excel with the XLfit add-in using the four-parameter logistic equation: Y = Bottom + (Top−Bottom)/[1+((IC50/X))^(∧)HillSlope], [formula] to derive the IC50 value for each compound. Table 2. IC50 of compounds

[1] = read-out: inhibition of topoisomerase I (Topo I) enzymatic activity, IC50; 0.75 U Topo I, pNO1 plasmid, 37 °C, 30 min; compounds listed by group (Group A / Group B)
[2] = 0.75 U Topo I, pNO1 plasmid, 37 °C, 30 min; compounds listed by group (Group A / Group B); read-out: inhibition of topoisomerase I (Topo I) enzymatic activity, IC50
[3] = HCT-116, 72 h incubation, CellTiter-Glo

Compound | IC50 (topoisomerase I (Topo I); [1]) | IC50 (HCT116 cells; HCT-116, 72 h) | IC50 (topoisomerase I (Topo I); [2]) | IC50 (HCT116 cells; [3])
CC[C@@]1(O)C(=O)OCc2c1cc1n(c2=O)Cc2c-1c(=O)c1cc(F)c(CN(C)C3CC3)cc1n2C1CC1 [Example 225] | 200 to 500 nM | < 20 nM | – | –
CC[C@@]1(O)C(=O)OCc2c1cc1n(c2=O)Cc2c-1c(=O)c1cc(F)ccc1n2-c1ccc(N)cc1 [Example 72, (S)-11-(4-aminophenyl)-4-ethyl-8-fluoro-4-hydroxy-1H-pyrano[3,4:6,7]indolizino[2,1-b]quinoline-3,6,14(4H,11H,12H)-trione] | 200 to 500 nM | < 20 nM | – | –
CC[C@@]1(O)C(=O)OCc2c1cc1n(c2=O)Cc2c-1c(=O)c1cc(F)c(C)cc1n2CCN(C)C1CC1 [Example 164] | 200 to 500 nM | < 20 nM | – | –
CC[C@@]1(O)C(=O)OCc2c1cc1n(c2=O)Cc2c-1c(=O)c1cc(F)c(CNC3CC3)cc1n2C1CCCC1 [Example 227] | 200 to 500 nM | < 20 nM | – | –
CC[C@@]1(O)C(=O)OCc2c1cc1n(c2=O)Cc2c-1c(=O)c1cc(F)cc(C)c1n2CCNC1CC1 [Example 169] | 200 to 500 nM | < 20 nM | – | –
CC[C@@]1(O)C(=O)OCc2c1cc1n(c2=O)Cc2c-1c(=O)c1cc(F)cc(F)c1n2C [Example 24, (S)-4-ethyl-8,10-difluoro-4-hydroxy-11-methyl-1,12-dihydro-14H-pyrano[3,4:6,7]indolizino[2,1-b]quinoline-3,6,14(4H,11H)-trione] | < 200 nM | < 20 nM | – | –
CC[C@@]1(O)C(=O)OCc2c1cc1n(c2=O)Cc2c-1c(=O)c1cc(F)c(C)cc1n2CCN(C)C1CCCC1 [Example 166] | 200 to 500 nM | < 20 nM | – | –
CC[C@@]1(O)C(=O)OCc2c1cc1n(c2=O)Cc2c-1c(=O)c1cc(F)ccc1n2-c1cccnc1 [Example 60, (S)-4-ethyl-8-fluoro-4-hydroxy-11-(pyridin-3-yl)-1H-pyrano[3',4':6,7]indolizino[2,1-b]quinoline-3,6,14(4H,11H,12H)-trione] | – | – | 200 to 500 nM | < 20 nM
CC[C@@]1(O)C(=O)OCc2c1cc1n(c2=O)Cc2c-1c(=O)c1cc(F)ccc1n2CCN(C)C1CCCC1(C)C (some centres unmarked) [Example 139] | 200 to 500 nM | < 20 nM | – | –
CC[C@@]1(O)C(=O)OCc2c1cc1n(c2=O)Cc2c-1c(=O)c1cc3c(cc1n2-c1ccc(N)cc1)OCO3 [Example 67, (S)-5-(4-aminophenyl)-12-ethyl-12-hydroxy-9,12-dihydro-8H-[1,3]dioxolo[4,5-g]pyrano[3,4:6,7]indolizino[2,1-b]quinoline-8,11,14 (SH,6H)-trione] | 200 to 500 nM | < 20 nM | – | –
CC[C@@]1(O)C(=O)OCc2c1cc1n(c2=O)Cc2c-1c(=O)c1cc(F)ccc1n2C(C)C [Example 36, (S)-4-ethyl-8-fluoro-4-hydroxy-11-isopropyl-1,12-dihydro-14H-pyrano[3',4':6,7]indolizino[2,1-b]quinoline-3,6,14(4H,11H)-trione] | < 200 nM | < 20 nM | – | –
CC[C@@]1(O)C(=O)OCc2c1cc1n(c2=O)Cc2c-1c(=O)c1cc(F)c(N)cc1n2C1CCCC1 [Example 69, (S)-9-amino-4-ethyl-8-fluoro-4-hydroxy-11-cyclopentyl-1,12-dihydro-14H-pyrano[3,4:6,7]indolizino[2,1-b]quinoline-3,6,14(4H,11H)-trione] | – | – | < 200 nM | < 20 nM
CC[C@@]1(O)C(=O)OCc2c1cc1n(c2=O)Cc2c-1c(=O)c1cc(F)ccc1n2CCN(C1CCCC1)C1CC1 [Example 137] | 200 to 500 nM | < 20 nM | – | –
CC[C@@]1(O)C(=O)OCc2c1cc1n(c2=O)Cc2c-1c(=O)c1cc(F)c(C)cc1n2CCNC1CCC1 [Example 159] | 200 to 500 nM | < 20 nM | – | –
CC[C@@]1(O)C(=O)OCc2c1cc1n(c2=O)Cc2c-1c(=O)c1cc(F)c(C)cc1n2CCNC1CC(F)(F)C1 [Example 160] | – | – | 200 to 500 nM | < 20 nM
CC[C@@]1(O)C(=O)OCc2c1cc1n(c2=O)Cc2c-1c(=O)c1cc(F)ccc1n2CCN1CCC(C)(C)CC1 [Example 185] | 200 to 500 nM | < 20 nM | – | –
CC[C@@]1(O)C(=O)OCc2c1cc1n(c2=O)Cc2c-1c(=O)c1cc(F)ccc1n2CCN(C1CCC1)C1CC1 [Example 141] | 200 to 500 nM | < 20 nM | – | –
CC[C@@]1(O)C(=O)OCc2c1cc1n(c2=O)Cc2c-1c(=O)c1cc(F)ccc1n2CCN1CCCC1(C)C [Example 184] | < 200 nM | < 20 nM | – | –
CC[C@@]1(O)C(=O)OCc2c1cc1n(c2=O)Cc2c-1c(=O)c1cc(F)cc(OC)c1n2C [Example 10, (S)-4-ethyl-8-fluoro-4-hydroxy-10-methoxy-11-methyl-1,12-dihydro-14H-pyrano[3,4:6,7]indolizino[2,1-b]quinoline-3,6,14 (4H,11H)-trione] | < 200 nM | < 20 nM | – | –
CC[C@@]1(O)C(=O)OCc2c1cc1n(c2=O)Cc2c-1c(=O)c1cc(F)c(F)cc1n2C [Example 5, (S)-4-ethyl-8,9-difluoro-4-hydroxy-11-methyl-1,12-dihydro-14H-pyrano[3',4':6,7]indolizino[2,1-b]quinoline-3,6,14(4H,11H)-trione] | – | – | < 200 nM | < 20 nM
CC[C@@]1(O)C(=O)OCc2c1cc1n(c2=O)Cc2c-1c(=O)c1cc(F)ccc1n2-c1cn(C2CC2)nc1C(C)O (stereo partly drawn) [Example 63, (4S)-11-(1-cyclopropyl-3-(1-hydroxyethyl)-1H-pyrazol-4-yl)-4-ethyl-8-fluoro-4-hydroxy-1,12-dihydro-14H-pyrano[3,4:6,7] indolizino[2,1-b]quinoline-3,6,14(4H,11H)-trione] | 200 to 500 nM | < 20 nM | – | –
CC[C@@]1(O)C(=O)OCc2c1cc1n(c2=O)Cc2c-1c(=O)c1cc(F)c(CN(C)C3CC3)cc1n2C1CCCC1 [Example 228] | – | – | 200 to 500 nM | < 20 nM
CC[C@@]1(O)C(=O)OCc2c1cc1n(c2=O)Cc2c-1c(=O)c1cc(F)ccc1n2CCN1CC(F)(F)C1 [Example 186] | – | – | 200 to 500 nM | < 20 nM
CC[C@@]1(O)C(=O)OCc2c1cc1n(c2=O)Cc2c-1c(=O)c1cc(F)c([C@@H](C)O)cc1n2C1CCCC1 (single isomer, unassigned) [Example 294] | – | – | 200 to 500 nM | –
